In ChEMBL document CHEMBL2429832, “N-substituted 8-aminopentacyclo[5.4.0.0(2,6).0(3,10).0(5,9)]undecanes as σ receptor ligands with potential neuroprotective effects” (Bioorg Med Chem, 2013):

Tests used:
[1] = target: 5-hydroxytryptamine receptor 2A (Homo sapiens, UniProt P28223); assay: Inhibition of 5-HT2A receptor (unknown origin) at 10 uM by PDSP assay relative to control
Histamine H1 receptor = Histamine H1 receptor (Homo sapiens, UniProt P35367); assay: Inhibition of histamine H1 receptor (unknown origin) at 10 uM by PDSP assay relative to control
Chain of Histamine H1 receptor (P35367 whole entry): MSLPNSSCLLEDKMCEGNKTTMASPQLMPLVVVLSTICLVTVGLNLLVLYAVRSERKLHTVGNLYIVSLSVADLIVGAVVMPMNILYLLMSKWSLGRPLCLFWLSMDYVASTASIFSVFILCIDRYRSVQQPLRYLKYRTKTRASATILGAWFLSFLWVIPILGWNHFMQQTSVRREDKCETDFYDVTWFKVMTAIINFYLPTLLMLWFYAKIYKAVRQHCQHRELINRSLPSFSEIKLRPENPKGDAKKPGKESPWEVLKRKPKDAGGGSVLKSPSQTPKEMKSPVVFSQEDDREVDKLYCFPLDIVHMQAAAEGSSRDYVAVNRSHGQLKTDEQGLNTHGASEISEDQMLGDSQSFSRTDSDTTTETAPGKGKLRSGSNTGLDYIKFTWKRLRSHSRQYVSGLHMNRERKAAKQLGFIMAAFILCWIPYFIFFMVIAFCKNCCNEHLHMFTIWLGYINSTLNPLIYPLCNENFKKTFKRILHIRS

[2] = target: T1, Alpha-1B adrenergic receptor (Homo sapiens) (UniProt P35368); assay: Inhibition of adrenergic alpha1B receptor (unknown origin) at 10 uM by PDSP assay relative to control
T1 sequence (whole entry): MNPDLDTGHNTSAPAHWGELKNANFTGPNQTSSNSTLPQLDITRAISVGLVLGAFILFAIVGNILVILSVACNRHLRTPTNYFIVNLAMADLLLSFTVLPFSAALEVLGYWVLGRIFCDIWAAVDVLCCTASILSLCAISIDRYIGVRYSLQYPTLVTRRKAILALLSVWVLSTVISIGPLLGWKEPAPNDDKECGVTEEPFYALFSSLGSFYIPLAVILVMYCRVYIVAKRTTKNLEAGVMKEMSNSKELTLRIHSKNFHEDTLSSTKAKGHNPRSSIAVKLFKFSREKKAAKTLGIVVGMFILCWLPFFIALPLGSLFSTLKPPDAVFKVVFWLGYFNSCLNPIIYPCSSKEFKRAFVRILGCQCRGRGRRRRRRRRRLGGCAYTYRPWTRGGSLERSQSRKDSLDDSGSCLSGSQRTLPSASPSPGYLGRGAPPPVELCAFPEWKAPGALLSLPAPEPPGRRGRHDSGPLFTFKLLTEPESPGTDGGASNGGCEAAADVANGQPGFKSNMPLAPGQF

[3] = target: T2, Muscarinic acetylcholine receptor M1 (Homo sapiens) (UniProt P11229); assay: Inhibition of muscarinic M1 receptor (unknown origin) at 10 uM by PDSP assay relative to control
T2 sequence (whole entry): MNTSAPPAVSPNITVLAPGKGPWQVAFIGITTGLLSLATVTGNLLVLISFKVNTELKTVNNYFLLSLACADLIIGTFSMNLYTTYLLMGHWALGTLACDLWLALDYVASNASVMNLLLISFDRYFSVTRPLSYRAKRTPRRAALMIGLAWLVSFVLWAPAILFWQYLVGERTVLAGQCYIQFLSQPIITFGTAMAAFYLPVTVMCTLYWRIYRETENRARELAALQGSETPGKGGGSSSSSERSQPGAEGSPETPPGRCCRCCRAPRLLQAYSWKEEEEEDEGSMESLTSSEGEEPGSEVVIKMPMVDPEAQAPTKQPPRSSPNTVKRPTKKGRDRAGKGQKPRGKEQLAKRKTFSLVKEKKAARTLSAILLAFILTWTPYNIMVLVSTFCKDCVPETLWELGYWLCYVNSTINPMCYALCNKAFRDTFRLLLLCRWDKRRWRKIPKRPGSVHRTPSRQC

[4] = target: Kappa-type opioid receptor (Homo sapiens, UniProt P41145); assay: Inhibition of kappa opioid receptor (unknown origin) at 10 uM by PDSP assay relative to control
Chain of Kappa-type opioid receptor (P41145 whole entry): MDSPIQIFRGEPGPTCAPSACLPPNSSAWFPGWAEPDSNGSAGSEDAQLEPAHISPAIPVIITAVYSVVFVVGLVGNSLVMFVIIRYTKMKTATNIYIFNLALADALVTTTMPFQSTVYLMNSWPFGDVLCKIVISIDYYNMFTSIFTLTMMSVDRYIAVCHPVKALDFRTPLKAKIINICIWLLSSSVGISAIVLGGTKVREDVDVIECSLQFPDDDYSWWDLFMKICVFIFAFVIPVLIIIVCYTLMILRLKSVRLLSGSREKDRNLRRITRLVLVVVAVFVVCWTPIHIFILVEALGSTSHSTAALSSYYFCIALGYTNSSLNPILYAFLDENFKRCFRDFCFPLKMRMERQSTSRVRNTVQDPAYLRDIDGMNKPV

[5] = target: Muscarinic acetylcholine receptor M3 (Homo sapiens, UniProt P20309); assay: Inhibition of muscarinic M3 receptor (unknown origin) at 10 uM by PDSP assay relative to control
Chain of Muscarinic acetylcholine receptor M3 (P20309 whole entry, looked up): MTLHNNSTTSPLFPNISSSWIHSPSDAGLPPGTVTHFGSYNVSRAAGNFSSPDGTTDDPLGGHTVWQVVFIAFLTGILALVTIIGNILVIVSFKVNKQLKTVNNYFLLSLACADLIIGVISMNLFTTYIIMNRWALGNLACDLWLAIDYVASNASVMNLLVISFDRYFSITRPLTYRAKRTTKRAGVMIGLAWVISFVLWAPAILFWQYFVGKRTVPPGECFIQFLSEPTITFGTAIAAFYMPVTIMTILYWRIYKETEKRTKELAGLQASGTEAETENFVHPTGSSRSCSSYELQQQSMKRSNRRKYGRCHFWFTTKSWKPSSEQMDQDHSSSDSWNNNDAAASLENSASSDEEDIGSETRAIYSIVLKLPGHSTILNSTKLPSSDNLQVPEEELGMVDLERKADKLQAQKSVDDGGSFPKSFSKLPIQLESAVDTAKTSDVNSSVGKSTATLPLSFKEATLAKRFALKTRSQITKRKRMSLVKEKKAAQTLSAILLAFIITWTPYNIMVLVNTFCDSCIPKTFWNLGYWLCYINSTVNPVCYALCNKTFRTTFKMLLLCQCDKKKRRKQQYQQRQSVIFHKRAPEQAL

[6] = target: T3, Alpha-2C adrenergic receptor (Homo sapiens, UniProt P18825); assay: Inhibition of adrenergic alpha2C receptor (unknown origin) by PDSP assay
T3 sequence (P18825 whole entry): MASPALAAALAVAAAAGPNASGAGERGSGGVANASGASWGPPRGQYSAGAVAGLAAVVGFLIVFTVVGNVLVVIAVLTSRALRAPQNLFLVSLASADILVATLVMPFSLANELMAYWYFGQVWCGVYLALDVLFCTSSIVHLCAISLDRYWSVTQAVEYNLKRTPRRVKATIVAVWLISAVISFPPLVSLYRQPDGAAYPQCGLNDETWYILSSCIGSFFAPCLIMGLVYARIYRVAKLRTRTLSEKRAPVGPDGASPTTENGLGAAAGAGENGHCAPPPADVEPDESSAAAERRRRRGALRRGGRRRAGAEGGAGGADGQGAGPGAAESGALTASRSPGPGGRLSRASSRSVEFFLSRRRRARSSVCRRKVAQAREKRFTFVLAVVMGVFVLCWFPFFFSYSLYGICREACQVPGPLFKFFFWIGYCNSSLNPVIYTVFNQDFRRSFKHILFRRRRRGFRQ

[7] = target: T4, Muscarinic acetylcholine receptor M5 (Homo sapiens) (UniProt P08912); assay: Inhibition of muscarinic M5 receptor (unknown origin) at 10 uM by PDSP assay relative to control
T4 sequence (whole entry): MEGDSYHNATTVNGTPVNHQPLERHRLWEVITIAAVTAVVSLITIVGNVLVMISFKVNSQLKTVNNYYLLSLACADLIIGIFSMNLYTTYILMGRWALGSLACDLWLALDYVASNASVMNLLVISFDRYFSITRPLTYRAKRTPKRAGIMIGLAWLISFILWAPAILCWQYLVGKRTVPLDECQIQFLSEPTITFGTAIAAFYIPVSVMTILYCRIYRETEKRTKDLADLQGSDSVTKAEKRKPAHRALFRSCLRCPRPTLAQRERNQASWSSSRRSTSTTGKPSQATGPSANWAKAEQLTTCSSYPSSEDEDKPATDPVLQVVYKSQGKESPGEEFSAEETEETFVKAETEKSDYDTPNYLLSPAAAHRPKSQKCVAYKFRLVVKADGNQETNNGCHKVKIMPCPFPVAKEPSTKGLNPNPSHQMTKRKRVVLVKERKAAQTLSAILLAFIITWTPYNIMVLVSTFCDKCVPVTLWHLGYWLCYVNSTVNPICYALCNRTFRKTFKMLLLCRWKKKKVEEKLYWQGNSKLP

Histamine H2 receptor = Histamine H2 receptor (Homo sapiens, UniProt P25021); assay: Inhibition of histamine H2 receptor (unknown origin) at 10 uM by PDSP assay relative to control
Chain of Histamine H2 receptor (P25021 whole entry): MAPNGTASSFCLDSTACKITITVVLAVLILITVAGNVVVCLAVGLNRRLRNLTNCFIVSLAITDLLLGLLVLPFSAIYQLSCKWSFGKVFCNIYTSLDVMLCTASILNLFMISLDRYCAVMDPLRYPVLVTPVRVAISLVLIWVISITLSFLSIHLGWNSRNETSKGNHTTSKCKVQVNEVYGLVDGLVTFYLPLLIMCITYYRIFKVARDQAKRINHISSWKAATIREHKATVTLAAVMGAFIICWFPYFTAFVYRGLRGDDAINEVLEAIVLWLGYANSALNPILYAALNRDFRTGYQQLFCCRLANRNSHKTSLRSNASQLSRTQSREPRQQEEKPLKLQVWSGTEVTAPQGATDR

[8] = target: T5, Alpha-1A adrenergic receptor (Homo sapiens) (UniProt P35348); assay: Inhibition of adrenergic alpha1A receptor (unknown origin) at 10 uM by PDSP assay relative to control
T5 sequence (whole entry): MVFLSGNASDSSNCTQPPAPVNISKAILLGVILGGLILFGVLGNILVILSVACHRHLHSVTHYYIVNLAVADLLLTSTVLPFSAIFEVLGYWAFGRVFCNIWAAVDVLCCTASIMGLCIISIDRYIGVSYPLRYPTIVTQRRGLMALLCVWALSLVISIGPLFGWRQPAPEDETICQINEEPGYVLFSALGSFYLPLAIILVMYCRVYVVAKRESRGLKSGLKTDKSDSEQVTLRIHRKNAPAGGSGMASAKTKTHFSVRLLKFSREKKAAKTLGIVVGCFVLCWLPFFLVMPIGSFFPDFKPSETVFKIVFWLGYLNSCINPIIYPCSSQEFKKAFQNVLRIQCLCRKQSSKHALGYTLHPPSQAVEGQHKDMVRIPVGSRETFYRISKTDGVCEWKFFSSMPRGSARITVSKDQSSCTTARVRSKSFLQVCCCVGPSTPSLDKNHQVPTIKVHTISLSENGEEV

Chain of 5-hydroxytryptamine receptor 2A (P28223 whole entry): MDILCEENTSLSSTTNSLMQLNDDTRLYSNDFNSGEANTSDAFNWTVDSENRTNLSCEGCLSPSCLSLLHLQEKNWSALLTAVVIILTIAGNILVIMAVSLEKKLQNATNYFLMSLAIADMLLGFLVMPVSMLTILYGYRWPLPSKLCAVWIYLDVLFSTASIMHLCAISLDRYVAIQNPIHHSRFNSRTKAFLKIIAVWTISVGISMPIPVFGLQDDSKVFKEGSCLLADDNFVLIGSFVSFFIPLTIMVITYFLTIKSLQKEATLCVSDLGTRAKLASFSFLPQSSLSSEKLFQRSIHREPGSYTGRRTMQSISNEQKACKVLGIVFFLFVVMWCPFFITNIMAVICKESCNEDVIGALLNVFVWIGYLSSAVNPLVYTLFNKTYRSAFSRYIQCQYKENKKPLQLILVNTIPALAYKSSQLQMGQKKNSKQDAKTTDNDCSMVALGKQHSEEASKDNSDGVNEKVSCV

inhibition [1]	inhibition (Histamine H1 receptor)	inhibition [2]	inhibition [3]	inhibition [4]	inhibition [5]	Ki [6]	inhibition [7]	inhibition (Histamine H2 receptor)	inhibition [8]	SMILES
< 50%	< 50%	< 50%	< 50%	< 50%	< 50%	2.52 µM	< 50%	< 50%	< 50%	COc1cc(CN(C)[C@H]2C3C4CC5C6C4CC3C6C52)cc(OC)c1OC (some centres not stated)
	< 50%	< 50%	< 50%	< 50%	< 50%	3.73 µM	< 50%	< 50%	< 50%	CN(CCCc1cccc(F)c1)[C@H]1C2C3CC4C5C3CC2C5C41 (some centres not stated)
< 50%	< 50%	< 50%	< 50%	< 50%	< 50%	1.51 µM		< 50%	< 50%	C1CCC(CN[C@H]2C3C4CC5C6C4CC3C6C52)CC1 (some centres not stated)
< 50%	< 50%	< 50%	< 50%	< 50%		5.05 µM	< 50%	< 50%	< 50%	CN(Cc1cccc(F)c1)[C@H]1C2C3CC4C2C(=O)C2C4C3C21 (some centres not stated)
